Source: PubChem BioAssay AID464 (The Scripps Research Institute Molecular Screening Center, 2006)
The source made the active and inactive calls.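 Rule for the calls: active = Compounds that kill half the cells at a concentration of 5 micromolar or below, from the fitted or estimated CC50; inactive = CC50 above 5 micromolar.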

The molecules below were run on Jurkat E6.1 viability, ATP luminescence, 48 h (assay: viability loss in Jurkat T cells – cell-based, ATP luminescence, 48 h, 60K MLSMR, cytotoxicity control, dose response (AID 464)).
For `O=C(Nc1ccc2c(c1)CCC2)C1CCN(c2c3c(nc4ncnn24)CCC3)CC1`, the CC50 was 4500 nM. For `O=c1cc(CSc2nnc(-c3cccs3)n2Cc2ccccc2)nc2sc3ccccc3n12`, the CC50 was 4960 nM. For `Cc1nc(C)c2c(=O)cc(-c3ccccc3)[nH]c2n1`, the CC50 was 4050 nM. Molecule `COc1cc(C2=NOC(C(=O)NCc3ccc(F)cc3)C2)cc(OC)c1OC` (stereo not given) has a CC50 of 347 nM. For `Cc1ccnc(NC(=O)CCCOc2cc(=O)n(C)c3ccccc23)c1`, the CC50 was 5580 nM (inactive). In the case of `CCc1nnc(NC(=O)CSc2nc3cccnc3n2C2CCCCC2)s1`, the CC50 was > 40000 nM (inactive). `CC1=CC(C)(C)Nc2ccc(OC(=O)c3ccco3)cc21` gave a CC50 of 4780 nM. `c1ccc(OCCCCn2cnc3ccccc32)cc1` was tested, and the CC50 was 20300 nM (inactive). In the case of `Clc1ccc(CCNc2ncnc3nc[nH]c23)cc1`, the CC50 was 19600 nM (inactive). In the case of `Cc1ccc(-c2nc(-c3ccccn3)no2)cc1`, the CC50 was 10300 nM (inactive). With `Cc1nn(Cc2ccccc2Cl)c(C)c1C(=O)Nc1nnc(C2CC2)s1` the CC50 was > 40000 nM (inactive). `CCCNc1nc2c(c(=O)n(C)c(=O)n2C)n1CCC(C)C` was tested, and the CC50 was 11900 nM (inactive). `COC(=O)c1sc(N)c(C(=O)OC)c1COC(=O)c1c(C)noc1C` was tested, and the CC50 was 2350 nM. In the case of `CCn1ncc(C2=NOC(C(=O)NCc3ccccc3)C2)c1C` (stereo not given), the CC50 was 1090 nM. With `Cc1ccc(O)c(NC(=O)CCC2CCCCC2)c1` the CC50 was 6000 nM (inactive). `CCC1CCCCN1S(=O)(=O)c1ccc(C(=O)Nc2nnc(-c3cccs3)o2)cc1` (stereo not given) was tested, and the CC50 was 11600 nM (inactive). With `CCCS(=O)(=O)c1nnnn1-c1cccc(OC)c1` the CC50 was 1730 nM. With `Cc1cccc(Cn2c(=O)n(CCCC(=O)NCc3ccco3)c(=O)c3ccccc32)c1` the CC50 was 5140 nM (inactive). For `CSc1nnc2c3ccccc3n(CCc3ccccc3)c2n1`, the CC50 was 16900 nM (inactive). In the case of `Cc1ccc(C)c(S(=O)(=O)Nc2ccc3scnc3c2)c1`, the CC50 was 3080 nM. `c1ccc(-c2cccc(-c3ccccn3)n2)nc1` gave a CC50 of 1080 nM. `COc1ccc(CC(=O)Nc2cccc(-c3nnc(-c4cccc(C)c4)o3)c2)cc1OC` was tested, and the CC50 was 7100 nM (inactive). Molecule `CCCCCCn1c(NCC)nc2c1c(=O)n(C)c(=O)n2C` has a CC50 of 2820 nM. In the case of `O=C(N1CCN(c2ccccn2)CC1)N1c2ccccc2Sc2ccccc21`, the CC50 was 669 nM. For `Cn1nnnc1SCC(=O)Nc1ccc(Oc2ccc(Cl)cc2)cc1`, the CC50 was 36800 nM (inactive). Molecule `Cc1nnc(NC(=O)CSc2nccn2-c2cccc(C)c2C)s1` has a CC50 of 2040 nM. `O=C(Nc1nc(-c2ccc3c(c2)OCO3)cs1)c1ccncc1` was tested, and the CC50 was > 40000 nM (inactive). In the case of `N#CC(C#N)=c1ccc2c(c1)NC1(CCCCC1)N=2`, the CC50 was 8080 nM (inactive). `COc1cccc(C2C=C(c3ccc(OC)cc3OC)Nc3nnnn32)c1` (stereo not given) was tested, and the CC50 was 18400 nM (inactive). `Cc1c(C(=O)N2CCOCC2)[nH]c2c1C(=O)CC(c1ccccc1Cl)C2` (stereo not given) was tested, and the CC50 was 1600 nM. Work on `COc1cc(C(=O)N2CCN(c3ncnc4sc(C)c(C)c34)CC2)cc(OC)c1OC` yielded a CC50 of 2360 nM. `Cc1ccc(C(=O)Nc2ccc(Cl)cn2)cc1` gave a CC50 of 4480 nM. `CCN(CC)c1ccc(-c2nn3c(-c4ccccc4OC)nnc3s2)cc1` showed a CC50 of 115 nM. With `O=C(CSC1=NCCS1)Nc1ccnc2ccccc12` the CC50 was > 40000 nM (inactive). `Cc1conc1NC(c1cccs1)c1ccc2cccnc2c1O` (stereo not given) was tested, and the CC50 was > 13000 nM (inactive). Molecule `N=c1c2c(n(Cc3ccc(Cl)cc3)c3c1CCC3)CCC2` has a CC50 of 2060 nM. With `COc1ccc(C(=O)c2ccc(N(C)C)cc2)c(OC)c1` the CC50 was 1500 nM. `CCCCOc1ccc(C(=O)Nc2ccncc2)cc1` showed a CC50 of 1780 nM. `COc1ccc(OC)c(Nc2cc(-c3ccccc3)nc(N)n2)c1` was tested, and the CC50 was 699 nM. Molecule `c1ccc(/N=C2\N=C(Nc3ccccn3)c3ccccc32)nc1` has a CC50 of 1120 nM. For `Cc1c(C(=O)OCC(C)C)[nH]c2c1C(=O)CC(c1ccco1)C2` (stereo not given), the CC50 was 462 nM. `COc1ccc(C(=O)CSc2nnc(Cn3cnc4ccccc43)o2)cc1` showed a CC50 of 2600 nM. Work on `CCOC(=O)CS(=O)(=O)c1nc(-c2ccccc2)cc(C(F)(F)F)n1` yielded a CC50 of 3420 nM. `CCOC(=O)c1[nH]c(C)c(C(=O)Nc2cc(OC)ccc2OC)c1C` showed a CC50 of 458 nM. `COc1ccccc1-c1nnc2sc(-c3ccc(N(C)C)cc3)nn12` was tested, and the CC50 was 34.3 nM. `Oc1ccc(-c2nc(-c3ccc(O)c(O)c3)cs2)cc1` was tested, and the CC50 was 167 nM. `CCOc1cc(C(=O)Nc2cnccn2)cc(OCC)c1OCC` was tested, and the CC50 was 6160 nM (inactive). `CCN(C(=O)c1ccc(C(C)(C)C)cc1)c1nnc(Cn2nnc3ccccc32)s1` was tested, and the CC50 was > 40000 nM (inactive). With `Cc1cc(C)n(-c2nc3ccccc3c(=O)n2OCC(=O)OCc2ccccc2)n1` the CC50 was 9760 nM (inactive). In the case of `COc1cc(NC(=O)c2ccc3c(c2)OCO3)ccc1NC(=O)C(C)C`, the CC50 was 2200 nM. `O=C(Nc1nc(-c2ccccn2)cs1)c1ccc(S(=O)(=O)N2CCCCC2)cc1` was tested, and the CC50 was 8990 nM (inactive). With `COc1cc(NS(=O)(=O)c2ccc(NC(C)=O)cc2)cc(OC)c1` the CC50 was 14800 nM (inactive). `COCc1cc(CN2CCCC2)c(O)c2ncccc12` was tested, and the CC50 was > 13000 nM (inactive). With `CSC(=Nc1ccccc1)c1c(O)n(C)c(=O)n(C)c1=O` the CC50 was 17800 nM (inactive). With `C=CCN(C(=O)c1ccccc1)c1ccc(OC)cc1` the CC50 was 9500 nM (inactive).
